The target in one series is Fms kinase (Homo sapiens (Human), UniProt P07333). The experiment in a line: Fms kinase biochemical activity assay (AlphaScreen, biotin-(E4Y)10 phosphorylation). Particulars: for IC50: read-out: Biochemical activity (IC50 μM) Fms. The procedure, abridged: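 Recombinant human Fms phosphorylating 30 nM biotin-(E4Y)10 with 100 μM ATP (1 ng/well enzyme) in Hepes pH 7.5 buffer with Mg2+/Mn2+, 5% DMSO, 20 min at 30 °C. Phosphotyrosine detected by AlphaScreen streptavidin donor/PY20 acceptor beads; IC50 from signal versus compound concentration.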
(In general: In Alpha technology, singlet oxygen from a donor bead excites a nearby acceptor bead.)

For a further series, the target named is c-Kit kinase (Homo sapiens (Human), UniProt P10721). The experiment in a line: c-Kit kinase biochemical activity assay (AlphaScreen, biotin-(E4Y)10 phosphorylation).
Another series deals with CYP1A2 (Homo sapiens (Human), UniProt P05177). The experiment in a line: CYP enzyme inhibition, fluorescent substrate.
For the next series, the target named is CYP2C19 (Homo sapiens (Human), UniProt P33261). The series is described as follows: CYP enzyme inhibition, fluorescent substrate. The procedure, abridged: (§1)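 […]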

The next series addresses CYP2C9 (Homo sapiens (Human), UniProt P11712). The series is described as follows: CYP enzyme inhibition, fluorescent substrate. The procedure, abridged: as §1
Another series has as its target CYP2D6 (Homo sapiens (Human), UniProt P10635). The experiment in a line: CYP enzyme inhibition, fluorescent substrate. Particulars: read-out: Cyp IC50 (μM) 2D6.
In a further series the target is CYP3A4(BFC) (Homo sapiens (Human), UniProt P08684). The series is described as follows: CYP enzyme inhibition, fluorescent substrate. An outline of the steps: as §1
A further series has as its target CYP3A4(BQ) (Homo sapiens (Human), UniProt P08684). The series is described as follows: CYP enzyme inhibition, fluorescent substrate. An outline of the steps: as §1
Setting [1] is: read-out: Cyp IC50 (μM) 3A4(BFC), BFC substrate.

Read-outs that look alike come from different tables or passages of the source. Where only a bound is given, the exact number is not on record here.

CYP2D6, sequence (P10635 whole entry): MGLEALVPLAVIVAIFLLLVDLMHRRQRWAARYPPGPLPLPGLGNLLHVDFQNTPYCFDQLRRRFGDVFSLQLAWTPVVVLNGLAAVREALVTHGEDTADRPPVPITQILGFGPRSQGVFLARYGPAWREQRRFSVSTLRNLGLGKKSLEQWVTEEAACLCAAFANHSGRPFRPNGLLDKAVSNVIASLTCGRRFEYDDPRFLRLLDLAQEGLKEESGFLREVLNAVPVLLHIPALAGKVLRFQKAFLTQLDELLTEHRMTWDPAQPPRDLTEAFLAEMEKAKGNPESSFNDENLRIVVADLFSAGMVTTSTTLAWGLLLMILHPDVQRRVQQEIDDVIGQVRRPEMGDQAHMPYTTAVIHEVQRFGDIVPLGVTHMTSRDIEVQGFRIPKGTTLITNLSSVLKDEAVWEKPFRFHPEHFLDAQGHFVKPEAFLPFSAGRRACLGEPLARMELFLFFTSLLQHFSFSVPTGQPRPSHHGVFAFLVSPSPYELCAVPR
Fms kinase, sequence (P07333 20-972): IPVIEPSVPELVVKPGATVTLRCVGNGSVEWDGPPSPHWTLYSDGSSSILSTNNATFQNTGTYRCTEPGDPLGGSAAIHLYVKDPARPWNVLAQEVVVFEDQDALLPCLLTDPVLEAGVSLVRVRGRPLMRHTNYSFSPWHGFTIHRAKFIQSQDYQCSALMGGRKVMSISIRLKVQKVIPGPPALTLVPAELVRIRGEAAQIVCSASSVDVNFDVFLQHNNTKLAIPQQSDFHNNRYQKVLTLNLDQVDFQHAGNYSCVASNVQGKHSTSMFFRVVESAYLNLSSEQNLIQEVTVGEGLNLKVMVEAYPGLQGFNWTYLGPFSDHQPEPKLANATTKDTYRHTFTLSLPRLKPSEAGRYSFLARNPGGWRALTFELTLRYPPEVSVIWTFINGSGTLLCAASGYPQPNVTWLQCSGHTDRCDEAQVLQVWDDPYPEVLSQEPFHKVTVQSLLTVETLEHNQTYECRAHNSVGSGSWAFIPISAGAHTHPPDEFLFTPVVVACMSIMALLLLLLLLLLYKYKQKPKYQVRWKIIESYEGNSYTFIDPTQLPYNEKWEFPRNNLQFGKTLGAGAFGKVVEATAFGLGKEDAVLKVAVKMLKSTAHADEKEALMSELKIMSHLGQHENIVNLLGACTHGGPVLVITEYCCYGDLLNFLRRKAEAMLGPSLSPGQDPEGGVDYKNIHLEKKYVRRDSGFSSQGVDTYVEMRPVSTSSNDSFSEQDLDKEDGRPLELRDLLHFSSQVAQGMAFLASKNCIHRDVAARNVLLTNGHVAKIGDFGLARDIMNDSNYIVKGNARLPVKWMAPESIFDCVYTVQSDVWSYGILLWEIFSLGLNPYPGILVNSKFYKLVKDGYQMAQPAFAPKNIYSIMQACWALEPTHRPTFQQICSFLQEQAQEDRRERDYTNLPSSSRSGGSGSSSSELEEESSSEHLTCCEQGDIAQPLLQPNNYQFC
c-Kit kinase, sequence (P10721 26-976): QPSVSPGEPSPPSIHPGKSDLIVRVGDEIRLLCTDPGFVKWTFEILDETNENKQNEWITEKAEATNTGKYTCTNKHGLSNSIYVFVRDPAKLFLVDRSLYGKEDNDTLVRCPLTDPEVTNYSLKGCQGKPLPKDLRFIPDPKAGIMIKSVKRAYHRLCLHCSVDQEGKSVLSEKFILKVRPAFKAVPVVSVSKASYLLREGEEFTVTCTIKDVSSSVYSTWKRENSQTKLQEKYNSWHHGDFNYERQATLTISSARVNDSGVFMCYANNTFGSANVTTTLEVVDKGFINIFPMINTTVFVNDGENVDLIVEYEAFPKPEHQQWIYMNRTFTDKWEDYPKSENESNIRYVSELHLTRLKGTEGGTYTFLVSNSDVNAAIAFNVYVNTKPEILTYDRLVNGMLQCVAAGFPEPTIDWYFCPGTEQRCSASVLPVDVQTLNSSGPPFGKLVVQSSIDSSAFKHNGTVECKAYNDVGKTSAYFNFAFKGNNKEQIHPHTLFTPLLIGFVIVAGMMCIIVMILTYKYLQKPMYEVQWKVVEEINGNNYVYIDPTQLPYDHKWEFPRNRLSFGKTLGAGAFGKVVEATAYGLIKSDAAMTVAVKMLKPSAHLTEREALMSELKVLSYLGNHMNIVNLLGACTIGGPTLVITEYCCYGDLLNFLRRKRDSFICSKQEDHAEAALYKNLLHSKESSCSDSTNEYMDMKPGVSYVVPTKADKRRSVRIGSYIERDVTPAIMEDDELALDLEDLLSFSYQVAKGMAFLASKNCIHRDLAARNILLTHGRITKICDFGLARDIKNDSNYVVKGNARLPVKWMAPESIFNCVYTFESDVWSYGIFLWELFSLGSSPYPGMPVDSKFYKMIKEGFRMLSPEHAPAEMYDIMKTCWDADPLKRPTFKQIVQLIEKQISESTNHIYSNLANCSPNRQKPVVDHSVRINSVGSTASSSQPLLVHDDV
CYP2C9, sequence (P11712 whole entry): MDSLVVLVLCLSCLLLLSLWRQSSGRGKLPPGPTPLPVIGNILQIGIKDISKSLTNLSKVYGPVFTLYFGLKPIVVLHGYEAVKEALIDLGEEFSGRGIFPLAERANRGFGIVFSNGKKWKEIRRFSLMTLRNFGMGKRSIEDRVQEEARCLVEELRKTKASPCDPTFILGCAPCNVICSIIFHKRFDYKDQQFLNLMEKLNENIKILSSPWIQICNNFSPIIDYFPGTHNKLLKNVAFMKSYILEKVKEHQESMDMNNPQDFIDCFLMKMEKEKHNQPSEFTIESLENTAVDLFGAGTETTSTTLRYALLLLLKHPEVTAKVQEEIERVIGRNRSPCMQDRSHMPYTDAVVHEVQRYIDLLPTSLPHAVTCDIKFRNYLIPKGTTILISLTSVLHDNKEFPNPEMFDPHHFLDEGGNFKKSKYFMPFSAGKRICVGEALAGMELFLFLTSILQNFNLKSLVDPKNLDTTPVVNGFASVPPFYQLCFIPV
CYP3A4(BQ), sequence (P08684 whole entry): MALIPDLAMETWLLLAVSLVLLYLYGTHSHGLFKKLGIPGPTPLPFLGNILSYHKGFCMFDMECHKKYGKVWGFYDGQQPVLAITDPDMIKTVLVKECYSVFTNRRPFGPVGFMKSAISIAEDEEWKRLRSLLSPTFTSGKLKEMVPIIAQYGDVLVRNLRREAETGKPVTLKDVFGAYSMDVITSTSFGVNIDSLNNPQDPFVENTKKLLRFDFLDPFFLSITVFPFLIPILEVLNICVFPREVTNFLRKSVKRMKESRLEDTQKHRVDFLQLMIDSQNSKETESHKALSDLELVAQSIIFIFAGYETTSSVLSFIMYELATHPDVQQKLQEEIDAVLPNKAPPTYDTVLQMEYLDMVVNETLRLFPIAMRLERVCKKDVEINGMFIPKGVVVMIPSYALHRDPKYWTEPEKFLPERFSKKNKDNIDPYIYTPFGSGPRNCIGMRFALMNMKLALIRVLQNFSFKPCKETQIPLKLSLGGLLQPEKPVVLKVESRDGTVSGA
CYP3A4(BFC), sequence (P08684 whole entry): as above
CYP1A2, sequence (P05177 whole entry): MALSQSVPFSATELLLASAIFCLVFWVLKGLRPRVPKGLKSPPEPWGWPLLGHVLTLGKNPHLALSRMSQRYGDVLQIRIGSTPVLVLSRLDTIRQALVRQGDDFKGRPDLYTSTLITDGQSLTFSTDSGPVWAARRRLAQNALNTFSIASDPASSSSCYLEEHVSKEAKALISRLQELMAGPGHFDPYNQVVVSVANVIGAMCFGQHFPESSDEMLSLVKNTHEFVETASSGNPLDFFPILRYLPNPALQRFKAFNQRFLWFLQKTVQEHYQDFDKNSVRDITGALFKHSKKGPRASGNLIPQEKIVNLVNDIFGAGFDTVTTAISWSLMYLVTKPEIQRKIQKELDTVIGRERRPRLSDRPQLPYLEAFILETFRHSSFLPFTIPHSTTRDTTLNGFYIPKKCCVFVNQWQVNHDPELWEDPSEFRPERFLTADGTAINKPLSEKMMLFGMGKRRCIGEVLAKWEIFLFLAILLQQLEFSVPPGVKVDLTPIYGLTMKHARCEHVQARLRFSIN
CYP2C19, sequence (P33261 whole entry): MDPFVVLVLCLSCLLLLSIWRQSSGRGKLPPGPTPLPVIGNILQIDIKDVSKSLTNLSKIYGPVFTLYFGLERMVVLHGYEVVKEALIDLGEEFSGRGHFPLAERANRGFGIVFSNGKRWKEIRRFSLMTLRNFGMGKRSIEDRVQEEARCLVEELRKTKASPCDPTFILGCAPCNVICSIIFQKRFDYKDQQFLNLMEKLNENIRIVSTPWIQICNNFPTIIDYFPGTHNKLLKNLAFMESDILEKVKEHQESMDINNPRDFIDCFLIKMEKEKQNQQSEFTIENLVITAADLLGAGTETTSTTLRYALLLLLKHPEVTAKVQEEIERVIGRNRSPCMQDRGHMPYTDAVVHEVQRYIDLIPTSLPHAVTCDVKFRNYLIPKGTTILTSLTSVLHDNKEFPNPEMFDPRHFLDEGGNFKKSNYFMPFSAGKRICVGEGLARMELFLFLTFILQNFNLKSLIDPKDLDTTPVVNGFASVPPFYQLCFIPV

Consider `Cc1cnc2[nH]cc(Cc3ccc(NCc4cnccc4C(F)(F)F)nc3F)c2c1` [Compound P-2062, [6-Fluoro-5-(5-methyl-1H-pyrrolo[2,3-b]pyridin-3-ylmethyl)-pyridin-2-yl]-(4-trifluoromethyl-pyridin-3-ylmethyl)-amine], for which, at Fms kinase, the “Biochemical activity selectivity (Kit IC50/Fms IC50)” value is given as greater than 20. Besides, the IC50 (usually the concentration at which inhibition is half-maximal) at Fms kinase was less than 0.1 µM; against c-Kit kinase it was greater than 0.1 µM; against CYP1A2 (human, 15 min), greater than 10 µM; at CYP2C19 (read-out: Cyp IC50 (μM) 2C19), less than 5 µM; at CYP2C9 (read-out: Cyp IC50 (μM) 2C9), less than 5 µM; on CYP2D6, greater than 10 µM. For the same molecule, the IC50 at CYP3A4(BFC) and at CYP3A4(BQ) was 5 to 10 µM each time.
As to `FC(F)(F)c1ccncc1CNc1ccc(Cc2c[nH]c3ncc(Cl)cc23)cn1` [Compound P-2063, [5-(5-Chloro-1H-pyrrolo[2,3-b]pyridin-3-ylmethyl)-pyridin-2-yl]-(4-trifluoromethyl-pyridin-3-ylmethyl)-amine], on Fms kinase, the “Biochemical activity selectivity (Kit IC50/Fms IC50)” value was less than 20. The half-inhibitory concentration (IC50) at Fms kinase was less than 0.1 µM; on c-Kit kinase, less than 0.1 µM; against CYP1A2 (human, 15 min), greater than 10 µM; on CYP2C19 it was 5 to 10 µM; at CYP2C9 (read-out: Cyp IC50 (μM) 2C9) it was greater than 10 µM; at CYP2D6, greater than 10 µM. Also, the IC50 against CYP3A4(BFC) and at CYP3A4(BQ) was 5 to 10 µM each time.
Take `COc1ncc(CNc2ncc(Cc3c[nH]c4ncc(C)cc34)cn2)cc1F` [Compound P-2073, (5-Fluoro-6-methoxy-pyridin-3-ylmethyl)-[5-(5-methyl-1H-pyrrolo[2,3-b]pyridin-3-ylmethyl)-pyrimidin-2-yl]-amine]: the “Biochemical activity selectivity (Kit IC50/Fms IC50)” value at Fms kinase is greater than 20. Further, the 50% inhibitory concentration (IC50) at Fms kinase is less than 0.1 µM; at c-Kit kinase, greater than 0.1 µM; against CYP1A2 (human, 15 min), greater than 10 µM; at CYP2C19 (read-out: Cyp IC50 (μM) 2C19) it was greater than 10 µM; on CYP2C9 (read-out: Cyp IC50 (μM) 2C9) it was less than 5 µM; on CYP2D6, greater than 10 µM. Moreover, the IC50 at CYP3A4(BFC) is 5 to 10 µM; on CYP3A4(BQ) (read-out: Cyp IC50 (μM) 3A4(BQ), BQ substrate), greater than 10 µM.
Regarding `Cc1cc(CNc2ccc(Cc3c[nH]c4ncc(Cl)cc34)c(F)n2)ccn1` [Compound P-2075, [5-(5-Chloro-1H-pyrrolo[2,3-b]pyridin-3-ylmethyl)-6-fluoro-pyridin-2-yl]-(2-methyl-pyridin-4-ylmethyl)-amine], on Fms kinase, the “Biochemical activity selectivity (Kit IC50/Fms IC50)” value is greater than 20. Also, the 50% inhibitory concentration (IC50) at Fms kinase was less than 0.1 µM; against c-Kit kinase it was greater than 0.1 µM; against CYP1A2, 5 to 10 µM; on CYP2C19 (read-out: Cyp IC50 (μM) 2C19), less than 5 µM; on CYP2C9 (read-out: Cyp IC50 (μM) 2C9), less than 5 µM; at CYP2D6 it was greater than 10 µM. Further, the 50% inhibitory concentration (IC50) on CYP3A4(BFC) (setting [1]) is less than 5 µM; against CYP3A4(BQ) it was 5 to 10 µM.
Turning to `Cc1cnc2[nH]cc(Cc3cnc(NCc4cccc(C)n4)nc3)c2c1` [Compound P-2079, (6-Methyl-pyridin-2-ylmethyl)-[5-(5-methyl-1H-pyrrolo[2,3-b]pyridin-3-ylmethyl)-pyrimidin-2-yl]-amine], the “Biochemical activity selectivity (Kit IC50/Fms IC50)” value at Fms kinase is less than 20. Further, the half-maximal inhibitory concentration (IC50) on Fms kinase was less than 0.1 µM; against c-Kit kinase, less than 0.1 µM; against CYP1A2 (human, 15 min) it was greater than 10 µM; against CYP2C19, 5 to 10 µM; against CYP2C9, 5 to 10 µM; on CYP2D6, greater than 10 µM. Also, the half-maximal inhibitory concentration (IC50) at CYP3A4(BFC) (setting [1]) was less than 5 µM; at CYP3A4(BQ) it was 5 to 10 µM.
For the molecule `Cc1cnc2[nH]cc(Cc3cnc(NCc4cccc(N5CCOCC5)n4)nc3)c2c1` [Compound P-2081, [5-(5-Methyl-1H-pyrrolo[2,3-b]pyridin-3-ylmethyl)-pyrimidin-2-yl]-(6-morpholin-4-yl-pyridin-2-ylmethyl)-amine], the “Biochemical activity selectivity (Kit IC50/Fms IC50)” value at Fms kinase is recorded as less than 20. Further, the IC50 at Fms kinase was less than 0.1 µM; against c-Kit kinase, less than 0.1 µM; on CYP1A2 (human, 15 min), greater than 10 µM; on CYP2C19 (read-out: Cyp IC50 (μM) 2C19), less than 5 µM; on CYP2C9 (read-out: Cyp IC50 (μM) 2C9) it was less than 5 µM; at CYP2D6, greater than 10 µM. Also, the half-inhibitory concentration (IC50) on CYP3A4(BFC) (setting [1]) was less than 5 µM; at CYP3A4(BQ), 5 to 10 µM.

The values above are taken from patent publication US9096593B2, “Compounds and methods for kinase modulation, and indications therefor” (Plexxikon Inc., priority 2009, dated 2015).
